{
  "source": "patent US20120082626A1",
  "about": "“USE OF R-BAMBUTEROL AS INHALED MEDICAMENT AND COMBINATION THERAPIES FOR TREATMENT OF RESPIRATORY DISORDERS” (priority 2009, published 2012)",
  "key": {"[1]": {"conditions": "oral; cited from earlier work"}, "[2]": {"test_system": "OVA evoked asthma in sensitized guinea pigs", "experiment": "Drug tolerance to R-bambuterol induced by pretreatment", "type": "in vivo", "conditions": "for Changes in Cdyn During asthma / Changes in Raw During asthma: OVA challenge, n=8", "method": "Animal sensitization and experiment methods were similar as discribed above. Briefly, animals were divided into three groups. R-bambuterol (8 mg/kg) or S-bamburerol (8 mg/kg) or 0.9% NaCL (control) were given orally in equal volum to each group seperatedly once a day for 7 consecutive days in order to induce drug tolerances. The Protection effects of same dosage of R-bambuterol against asthma attack induced by OVA challenge were evaluated by the changes of Airway resistance (Raw) and dynamic pulmonary compliance (Cdyn)."}, "[3]": {"conditions": "pretreated with the labelled substance 8 mg/kg orally once a day 7 days, then R-bambuterol"}, "[4]": {"conditions": "saline pretreated group, protection by R-bambuterol"}},
  "data": [
    {"smiles": "CN(C)C(=O)Oc1cc(OC(=O)N(C)C)cc([C@@H](O)CNC(C)(C)C)c1", "note": "[R-bambuterol]", "values": [
      {"measurement": "time of maximum concentration (tmax)", "setting": "[1]", "value": "around one"},
      {"measurement": "protection effects of R-bambuterol against asthmatic attack after pretreatment", "setting": "[2]; group pretreated with the labelled substance", "value": "less than control but no significant differences"},
      {"measurement": "Changes in Cdyn During asthma", "setting": "[2]; [3]", "value": "−0.11 ± 0.08"},
      {"measurement": "Changes in Raw During asthma", "setting": "[2]; [3]", "value": "+0.13 ± 0.09"},
      {"measurement": "protection against asthma attack in control group", "setting": "[2]; saline pretreated control group", "value": "fully protect against asthma attack"},
      {"measurement": "Changes in Cdyn During asthma", "setting": "[2]; [4]", "value": "−0.08 ± 0.06^•"},
      {"measurement": "Changes in Raw During asthma", "setting": "[2]; [4]", "value": "+0.09 ± 0.03^•"}
    ]}
  ]
}
